Experimental data taken from PubChem BioAssay (NCI).
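Assay format: 96-well plates, 48-hour exposure. TGI denotes the concentration required for complete inhibition of growth.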

Tests used:
Assay in all cases: inhibition of tumour cell growth, NCI panel, 48 h
[1] = test system: NCI-H460 lung
[2] = test system: HS 578T breast
[3] = test system: HOP-62 NSCLC
[4] = test system: NCI-H23 lung
[5] = test system: OVCAR-5 ovarian
[6] = test system: MCF7 breast
[7] = test system: MDA-MB-435
[8] = test system: SK-OV-3 ovarian
[9] = test system: UACC-257 melanoma
[10] = test system: BT-549 breast
[11] = test system: MOLT-4 leukemia
[12] = test system: 786-0 renal
[13] = test system: ACHN renal
[14] = test system: SF-539 CNS
[15] = test system: OVCAR-8 ovarian
[16] = test system: NCI-H226 lung
[17] = test system: HCT-116 colon
[18] = test system: EKVX NSCLC
[19] = test system: OVCAR-4 ovarian
[20] = test system: IGROV1 ovarian
[21] = test system: CCRF-CEM leukemia
[22] = test system: HOP-92 NSCLC
[23] = test system: CAKI-1 renal
[24] = test system: UO-31 renal
[25] = test system: A498 renal
[26] = test system: SK-MEL-2 melanoma
[27] = test system: SW-620 colon
[28] = test system: NCI-H522 lung
[29] = test system: TK-10 renal
[30] = test system: HCT-15 colon
[31] = test system: OVCAR-3 ovarian
[32] = test system: SNB-75 CNS
[33] = test system: LOX IMVI melanoma
[34] = test system: HCC-2998 colon
[35] = test system: DU-145 prostate
[36] = test system: COLO 205 colon
[37] = test system: SK-MEL-5 melanoma
[38] = test system: RPMI-8226 leukemia
[39] = test system: UACC-62 melanoma
[40] = test system: NCI/ADR-RES ovarian
[41] = test system: M14 melanoma
[42] = test system: SNB-19 CNS
[43] = test system: T-47D breast
[44] = test system: SN12C renal
[45] = test system: A549 NSCLC
[46] = test system: U251 CNS
[47] = test system: SF-295 CNS
[48] = test system: MDA-N
[49] = test system: K-562 leukemia
[50] = test system: HT29 colon
[51] = test system: HL-60(TB) leukemia
[52] = test system: PC-3 prostate
[53] = test system: SK-MEL-28 melanoma
[54] = test system: KM12 colon
[55] = test system: MDA-MB-231 breast
[56] = test system: SF-268 CNS
[57] = test system: MALME-3M melanoma
[58] = test system: RXF 393 renal
[59] = test system: SR leukemia

Compound `C/C=C1/CN2CCC34c5ccccc5N(C)C23C2CC1C4(C(=O)OC)C(O)O2` (stereo not given) has a TGI [1] of over 100000 nM, a TGI [2] of over 100000 nM and a TGI [3] of over 100000 nM. For the same compound, the TGI [4] was over 100000 nM, the TGI [5] was over 100000 nM and the TGI [6] was over 100000 nM. It also gave a TGI [7] of over 100000 nM, a TGI [8] of over 100000 nM and a TGI [9] of over 100000 nM. The TGI [10] was over 100000 nM, the TGI [11] was over 100000 nM and the TGI [12] was over 100000 nM. The TGI [13] was over 100000 nM, the TGI [14] was over 100000 nM and the TGI [15] was over 100000 nM. For the same compound, the TGI [16] was over 100000 nM, the TGI [17] was over 100000 nM and the TGI [18] was over 100000 nM. It also gave a TGI [19] of over 100000 nM, a TGI [20] of over 100000 nM and a TGI [21] of over 100000 nM. It also gave a TGI [22] of over 100000 nM, a TGI [23] of over 100000 nM and a TGI [24] of over 100000 nM. The TGI [25] was over 100000 nM, the TGI [26] was over 100000 nM and the TGI [27] was over 100000 nM. The TGI [28] was over 100000 nM, the TGI [29] was over 100000 nM and the TGI [30] was over 100000 nM. For the same compound, the TGI [31] was over 100000 nM, the TGI [32] was over 100000 nM and the TGI [33] was over 100000 nM. The TGI [34] was over 100000 nM, the TGI [35] was over 100000 nM and the TGI [36] was over 100000 nM. For the same compound, the TGI [37] was over 100000 nM, the TGI [38] was over 100000 nM and the TGI [39] was over 100000 nM. It also gave a TGI [40] of over 100000 nM, a TGI [41] of over 100000 nM and a TGI [42] of over 100000 nM. The TGI [43] was over 100000 nM, the TGI [44] was over 100000 nM and the TGI [45] was over 100000 nM. It also gave a TGI [46] of over 100000 nM, a TGI [47] of over 100000 nM and a TGI [48] of over 100000 nM. It also gave a TGI [49] of over 100000 nM, a TGI [50] of over 100000 nM and a TGI [51] of over 100000 nM. It also gave a TGI [52] of over 100000 nM, a TGI [53] of over 100000 nM and a TGI [54] of over 100000 nM. The TGI [55] was over 100000 nM and the TGI [56] was over 100000 nM.
`CC1=CC(=O)[C@@H](O)[C@]2(C)[C@H]3[C@@]4(O)OC[C@@]35[C@@H](C[C@@H]12)OC(=O)C(OC(=O)CC1=CCCC1)[C@H]5[C@@H](C)[C@H]4O` (stereo not given in full) gave a TGI [1] of 133 nM, a TGI [2] of 136 nM and a TGI [3] of 108 nM. For the same compound, the TGI [4] was 152 nM, the TGI [5] was 687 nM and the TGI [6] was 656 nM. For the same compound, the TGI [7] was 443 nM, the TGI [8] was 5040 nM and the TGI [9] was 217 nM. It also gave a TGI [10] of 198 nM, a TGI [11] of 2530 nM and a TGI [12] of 311 nM. For the same compound, the TGI [13] was 350 nM, the TGI [14] was 67.6 nM and the TGI [15] was 139 nM. It also gave a TGI [16] of 63.2 nM, a TGI [17] of 1420 nM and a TGI [18] of 1450 nM. For the same compound, the TGI [57] was 66.6 nM, the TGI [19] was 284 nM and the TGI [20] was 112 nM. For the same compound, the TGI [21] was 136 nM, the TGI [22] was 1150 nM and the TGI [23] was 1630 nM. The TGI [24] was 449 nM, the TGI [26] was 237 nM and the TGI [27] was over 29500 nM. It also gave a TGI [28] of 73.3 nM, a TGI [29] of 948 nM and a TGI [58] of 234 nM. It also gave a TGI [32] of 155 nM, a TGI [33] of 65.3 nM and a TGI [34] of 232 nM. It also gave a TGI [35] of 4660 nM, a TGI [36] of 724 nM and a TGI [37] of 71.3 nM. The TGI [38] was 39 nM, the TGI [39] was 210 nM and the TGI [40] was 1210 nM. For the same compound, the TGI [41] was 103 nM, the TGI [59] was over 100000 nM and the TGI [43] was over 23200 nM. The TGI [44] was 435 nM, the TGI [45] was 8990 nM and the TGI [47] was 448 nM. It also gave a TGI [48] of 163 nM, a TGI [49] of over 100000 nM and a TGI [50] of 203 nM. For the same compound, the TGI [51] was 237 nM, the TGI [52] was 733 nM and the TGI [53] was 1250 nM. For the same compound, the TGI [54] was 166 nM, the TGI [55] was 372 nM and the TGI [56] was 132 nM.
